Common to all, as to test: NCI-60 cell line screen, 48 h
Experiment [1] has as its system BT-549 breast.
In experiment [2] the test system is HOP-92 NSCLC.
Experiment [3] deals with KM12 colon.
Experiment [4] concerns LOX IMVI melanoma.
The subject of experiment [5] is NCI-H522 lung.
The subject of experiment [6] is NCI/ADR-RES ovarian.
Experiment [7] relates to RXF 393 renal.
The test system of experiment [8] is SF-295 CNS.
Experiment [9] has as its system SK-OV-3 ovarian.
In experiment [10] the test system is U251 CNS.

Molecules are shown by their SMILES. Values joined by “and” are separate entries in the source; they are usually repeats but may differ in a detail not shown here. Identical values can stand only once.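 All cell lines were grown in 96-well plates and treated with compound for 48 hours. GI50 is the concentration that inhibits growth by half. At the TGI there is no net growth.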

With `c1ccc(CNC2CC(NCc3ccccn3)CC(NCc3ccccn3)C2)nc1` (centres undefined), the GI50 in [1] is 18.2 µM; in experiment [3], 2.05 µM; in [4], 2.62 µM and 5.4 µM and 2.83 µM; in [5] it was 2.16 µM; in experiment [6] it was above 100 µM; in experiment [7] it was 1.98 µM and 4.41 µM. The GI50 was 5.03 µM in experiment [8]; 1.95 µM and 4.9 µM and 1.88 µM in experiment [10]. Moreover, the TGI in experiment [1] was 17.1 µM and 10.5 µM and 38 µM; in experiment [2], 9.06 µM and 8.87 µM and 15.2 µM; in [3], 3.8 µM and 6 µM and 4.07 µM; in [4], 6.95 µM and 14.5 µM and 7.77 µM; in [5] it was 6.36 µM and 12.2 µM and 4.68 µM; in experiment [6], above 100 µM. In addition, the TGI in [7] is 4.11 µM and 9.03 µM and 3.83 µM; in experiment [8], 18.9 µM and 20.9 µM and 36.5 µM; in experiment [9] it was 7.86 µM and 8.7 µM and 7.17 µM; in experiment [10] it was 3.88 µM and 9.35 µM and 3.36 µM.
Take `O=C(O)[C@H]1[C@@H](C2CCCCC2)O[C@@H](C2CCCCC2)O[C@H]1C(F)(F)F`: the TGI in experiment [1] is 98.6 µM; in experiment [2], 61.3 µM; in experiment [3], 46.4 µM; in experiment [4], 36.5 µM; in [5], above 100 µM; in [6], above 100 µM. For the same compound, the TGI is 48.4 µM in [7], 39.5 µM in experiment [8], above 100 µM in experiment [9] and 34.2 µM in [10].
For the compound `Cc1nc2c(=S)[nH]ncc2[nH]1`, the TGI in experiment [1], in experiment [2], in experiment [3], in [4], in experiment [5] and in [6] was above 100 µM throughout. In addition, the TGI in experiment [8], in experiment [9] and in experiment [10] was above 100 µM each time.
As for `O=C1NC(N/N=C\C(O)C(O)C(O)CO)=N/C1=C/c1ccccc1` (centres undefined), the GI50 in [1] is > 100 µM and 27.4 µM; in [2], > 100 µM and 45 µM; in [3], > 100 µM and 28.1 µM; in [5], > 100 µM and 46.5 µM; in experiment [8], > 100 µM and 38.2 µM. For the same compound, the TGI in experiment [1] was > 100 µM and 99.8 µM; in experiment [2], above 100 µM; in experiment [3], above 100 µM; in [4], above 100 µM; in [5], above 100 µM; in [6], above 100 µM. The TGI in experiment [7], in [8], in experiment [9] and in experiment [10] was above 100 µM throughout.
Turning to `COc1ccc(-c2nc(N)c(C#N)c3c2CCS(=O)(=O)c2ccc(C)cc2-3)cc1OC`, the TGI is above 100 µM in [1]; above 100 µM in [2]; 52.3 µM in experiment [3]; above 100 µM in [4]; 25.1 µM in [5]; above 100 µM in [6]. The same compound registered a TGI in experiment [10] above 100 µM.
Consider `OCC1OC(c2scc3c(=S)nc[nH]c23)C(O)C1O` (centres undefined), for which the TGI in experiment [1] is above 100 µM; in experiment [2], 6.92 µM; in experiment [3], above 100 µM; in [4] it was above 82.5 µM; in [5], 82.4 µM; in experiment [6], above 66.3 µM. The TGI in experiment [7] was above 100 µM; in experiment [8] it was above 92.8 µM; in experiment [9], 35.4 µM; in experiment [10], above 100 µM.
For `FC(F)(F)c1ccc(-c2nc(-c3nc4cc(Cl)c(Cl)cc4[nH]3)c3ccccn23)cc1`, the GI50 is 8.69 µM in [1]; 2.97 µM in [2]; 10.6 µM in [5]; 6.1 µM in experiment [6]; 2.26 µM in experiment [7]; 3.9 µM in experiment [8]. Besides, in experiment [10], the GI50 is 3.13 µM. For the same compound, the TGI in [1] was above 100 µM; in [2] it was 28.7 µM; in experiment [5] it was above 100 µM; in [6] it was above 100 µM; in experiment [7], 5.99 µM; in experiment [8], above 100 µM. The compound also yielded a TGI in [10] above 100 µM.
As to `C=C(C)C(=O)CC[C@@H](C)[C@H]1[C@@H](OC2OC(CO)C(O)C(O)C2O)C[C@@]2(C)[C@@H]3C[C@H](O)C4C(C)(C)[C@@H](OC5OC(CO)C(O)C(O)C5O)CC[C@@]45C[C@@]35CC[C@]12C` (some centres undefined), the TGI in experiment [1], in [2], in [3], in experiment [4], in experiment [5] and in [6] was above 100 µM each time. The TGI in [8], in experiment [9] and in experiment [10] was above 100 µM in each case.
For `O=C1C=CC2CCC1C2` (centres undefined), the TGI in experiment [1] is 73.3 µM; in experiment [3], above 100 µM; in [4] it was above 100 µM; in experiment [5] it was 65.9 µM; in [6] it was above 100 µM; in experiment [8], above 100 µM. Further, the results for the TGI in experiment [9] and in experiment [10] were 72.4 µM and above 100 µM, respectively.
For `Clc1ccc2c(SCC3CO3)c3ccccc3nc2c1` (centres undefined), the TGI in experiment [1] is 18.7 µM; in [2], 5.08 µM; in experiment [4], above 100 µM; in experiment [5] it was 5.64 µM; in [6], 7.24 µM; in experiment [7], 8.08 µM. Besides, the TGI worked out at 42.1 µM in experiment [8] and 53.4 µM in experiment [9].
For `CC[C@@]1(O)C(=O)OCc2c1cc1n(c2=O)Cc2c-1nc1ccccc1c2/C=N\NC(=O)C(N)CC(C)C` (some centres undefined), the TGI in [1] was above 100 µM; in [2] it was 5.35 µM; in [4] it was 0.244 µM; in experiment [5], 1.6 µM; in experiment [6], 0.856 µM; in [7] it was 0.154 µM. The TGI in experiment [8] was 0.694 µM; in [10] it was 0.646 µM.
As to `COc1cc(/C=C/C(=O)OCC23CC[C@@]4(C(=O)O)CCC(C)[C@H](C)C4C2=CCC2[C@@]4(C)CC[C@H](O)C(C)(C)C4CC[C@]23C)ccc1O` (some centres undefined), the TGI in experiment [1] is 50.6 µM; in [3] it was above 100 µM; in experiment [4] it was 34.2 µM; in [5], 31.2 µM; in experiment [6] it was 44.9 µM; in [7], 47.4 µM. The TGI in [8] was 73.9 µM; in experiment [9] it was 83.4 µM; in experiment [10] it was 76.1 µM.
In the case of `Cc1ccc(C2CC(=O)CC(c3ccc(C)cc3)C23C(=O)NC(=O)NC3=O)cc1` (centres undefined), the TGI in experiment [1], in experiment [2], in experiment [3], in experiment [4], in experiment [5] and in experiment [6] was above 100 µM throughout. Further, the TGI in experiment [7], in [8] and in experiment [10] was above 100 µM throughout.

The record behind these values is PubChem BioAssay (NCI).
